How the values were obtained:
Assay type in all cases: physicochemical
[1] = Solubility of racecadotril in water, buffer and Beta-HPCD (statements)
[2] = Stability of Racecadotril in Buffer Solutions
Experimental: (§1) For comparative purposes, the stability of racecadotril was analyzed when solubilized in pH 4.5 Acetate buffer and pH 4.5 Citrate buffer (Table 3). • 1. Pipet 1 mL of Racecadotril solution into a 100 mL volumetric flask (V.F.) • 2. Dilute to volume with the same buffer used in the solution preparation. • 3. […] Parameters may be modified to optimize chromatography. • The assay of Racecadotril is determined by using the external standard injected. The degradation products levels are determined by % peak area relative to the Racecadotril peak. [table] [table] Mobil Phase A: Phosphate buffer, pH 2.5 (Buffer prep: dissolve 1 g of potassium dihydrogen phosphate in water, adjust to pH 2.5 with phosphoric acid, dilute to 1000 mL with water) Mobil Phase B: 100% Acetonitrile

[3] = Stability of Racecadotril in Beta-Hydroxypropyl-Cyclodextrin (Beta-HPCD)
Experimental: as §1, with “Formulations” for “For comparative purposes, the stability”, “racecadotril” for “racecadotril was analyzed when solubilized”, “beta-hydroxypropyl-cyclodextrin were evaluated” for “pH 4.5 Acetate buffer and pH 4.5 Citrate buffer”, “4).” for “3).”

SMILES: CC(=O)SCC(Cc1ccccc1)C(=O)NCC(=O)OCc1ccccc1 (racemic) [Racecadotril]
- solubility in buffer compared with water [1]: more soluble in buffer than in water
- solubility utilizing the Beta-HPCD compared with buffers alone [1]: higher solubility
- Racecadotril in pH 4.5 Acetate Buffer at 40° C. (% Racecadotril) ([2]; 1 Week): 96.7%
- Racecadotril in pH 4.5 Citrate Buffer at 40° C. (% Racecadotril) ([2]; 1 Week): 95.3%
- Racecadotril in pH 4.5 Acetate Buffer at 40° C. (% Racecadotril) ([2]; 2 Weeks): 93.3%
- Racecadotril in pH 4.5 Citrate Buffer at 40° C. (% Racecadotril) ([2]; 2 Weeks): 91.2%
- Racecadotril in pH 4.5 Acetate Buffer at 40° C. (% Racecadotril) ([2]; 3 Weeks): 91.5%
- Racecadotril in pH 4.5 Citrate Buffer at 40° C. (% Racecadotril) ([2]; 3 Weeks): 89.0%
- Racecadotril in pH 4.5 Acetate Buffer at 40° C. (% Racecadotril) ([2]; 4 Weeks): 88.0%
- Racecadotril in pH 4.5 Citrate Buffer at 40° C. (% Racecadotril) ([2]; 4 Weeks): 85.4%
- Racecadotril in pH 4.5 Acetate Buffer at 40° C. (% Racecadotril) ([2]; 12 Hours): 99.69%
- Racecadotril in pH 4.5 Citrate Buffer at 40° C. (% Racecadotril) ([2]; 12 Hours): 99.63%
- stability in buffer compared with water ([2]; 40° C. and 4 weeks): more stable in a buffer than in water
- Racecadotril in pH 4.5 Acetate Buffer at 40° C. (% Racecadotril) ([2]; Initial): 99.86%
- Racecadotril in pH 4.5 Citrate Buffer at 40° C. (% Racecadotril) ([2]; Initial): 99.74%
- stability in Beta-HPCD compared with buffers alone [3]: stability is similar to that in buffers alone
- Racecadotril in Beta-HPCD at 40° C. (%) with pH Adjustment to 4.5, Acetate Buffer ([3]; 1 Week): 96.16%
- Racecadotril in Beta-HPCD at 40° C. (%) with pH Adjustment to 4.5, Citrate Buffer ([3]; 1 Week): 96.20%
- Racecadotril in Beta-HPCD at 40° C. (%) without pH Adjustment, Acetate Buffer ([3]; 1 Week): 94.1%
- Racecadotril in Beta-HPCD at 40° C. (%) without pH Adjustment, Citrate Buffer ([3]; 1 Week): 93.6%
- Racecadotril in Beta-HPCD at 40° C. (%) with pH Adjustment to 4.5, Acetate Buffer ([3]; 2 Weeks): 92.7%
- Racecadotril in Beta-HPCD at 40° C. (%) with pH Adjustment to 4.5, Citrate Buffer ([3]; 2 Weeks): 92.91%
- Racecadotril in Beta-HPCD at 40° C. (%) with pH Adjustment to 4.5, Acetate Buffer ([3]; 3 Weeks): 88.95%
- Racecadotril in Beta-HPCD at 40° C. (%) with pH Adjustment to 4.5, Citrate Buffer ([3]; 3 Weeks): 89.59%
- Racecadotril in Beta-HPCD at 40° C. (%) with pH Adjustment to 4.5, Acetate Buffer ([3]; 4 Weeks): 85.84%
- Racecadotril in Beta-HPCD at 40° C. (%) with pH Adjustment to 4.5, Citrate Buffer ([3]; 4 Weeks): 86.80%
- Racecadotril in Beta-HPCD at 40° C. (%) with pH Adjustment to 4.5, Acetate Buffer ([3]; 12 Hours): 98.07%
- Racecadotril in Beta-HPCD at 40° C. (%) with pH Adjustment to 4.5, Citrate Buffer ([3]; 12 Hours): 98.12%
- Racecadotril in Beta-HPCD at 40° C. (%) without pH Adjustment, Acetate Buffer ([3]; 12 Hours): 96.9%
- Racecadotril in Beta-HPCD at 40° C. (%) without pH Adjustment, Citrate Buffer ([3]; 12 Hours): 96.9%
- Racecadotril in Beta-HPCD at 40° C. (%) with pH Adjustment to 4.5, Acetate Buffer ([3]; Initial): 99.58%
- Racecadotril in Beta-HPCD at 40° C. (%) with pH Adjustment to 4.5, Citrate Buffer ([3]; Initial): 99.58%
- Racecadotril in Beta-HPCD at 40° C. (%) without pH Adjustment, Acetate Buffer ([3]; Initial): 99.5%
- Racecadotril in Beta-HPCD at 40° C. (%) without pH Adjustment, Citrate Buffer ([3]; Initial): 99.3%
